The values below come from patent US20240301319A1, “PERFUMING COMPOSITIONS” (FIRMNICH SA, priority 2017, published 2024).

Series [1] is described as follows: Odor threshold and odor value of perfuming compounds (Tables 4 to 10).
A short description of series [2]: Volatility of perfuming compounds (Tables 4 to 10), with top/middle/bottom note type. In kind it is physicochemical. The method in brief:
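Volatility is expressed in μg/l in air. Top notes are 70,000 to 100 μg/l, middle notes 99 to 50 μg/l, and bottom notes 49 to 0.1 μg/l. Compounds are grouped by olfactive family: watery, green, fruity, citrus, sweet, gourmand and woody.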

The mark [3] stands for this setting: perfuming compounds having a green note.
The mark [4] stands for this setting: note type (Top/Middle/Bottom) by volatility, perfuming compounds having a green note.
Where [5] appears, read: Table 8, perfuming compounds having a sweet note.
The mark [6] stands for this setting: Table 6, perfuming compounds having a fruity note.
[7] abbreviates: Table 6, perfuming compounds having a fruity note, note type by volatility.
Setting [8] is: Table 8, perfuming compounds having a sweet note, note type by volatility.
Where [9] appears, read: Table 9, perfuming compounds having a gourmand note, note type by volatility.
Where [10] appears, read: Table 10, perfuming compounds having a woody note, note type by volatility.

The structures appear in SMILES notation.

For `CC1=C[C@H]2C[C@H](C(C)C)[C@@H]1[C@@H](C1OCCO1)C2` (racemic), the “Odor Threshold (μg/l air)” value in series [1] (setting [3]) is 1.51E−01 μg/l air. Further, the Type entry in series [2] (setting [4]) was “Bottom”. For the same compound, the “Volatility (μg/l air)” value in series [2] (setting [3]) worked out at 11.75 μg/l air.
`CCCCCC(=O)OCC` [ETHYL HEXANOATE]: the “Odor Threshold” value in series [1] (setting [5]) is reported as 9.11E−04 μg/l air; in series [1] (Table 9, gourmand note) it was 9.11E−04 μg/l air. In series [1] (setting [5]), the “Odor Value” was found to be 1.06E+07. In series [1] (setting [3]), the “Odor Threshold (μg/l air)” value was found to be 9.11E−04 μg/l air. The Volatility in series [2] (setting [6]) was found to be 9675.10 μg/l air; in series [2] (setting [5]), 9675.10 μg/l air; in series [2] (Table 9, gourmand note), 9675.10 μg/l air. The Type entry in series [2] (setting [7]) was “TOP (perfuming compounds having a volatility ranging from 70,000 to 100 μg/l in air are referred to as “top notes”)”; in series [2] (setting [8]), “Top”; in series [2] (setting [9]), “Top”; in series [2] (setting [4]), “Top”. Besides, the “Volatility (μg/l air)” value in series [2] (setting [3]) was 9675.10 μg/l air.
Consider `CC/C(=C\C[C@H]1CC=C(C)C1(C)C)CO`, for which, in series [1] (Table 10, woody note), the “Odor Threshold” value is on record as 2.41E−05 μg/l air. The Type result in series [2] (setting [10]) is “Bottom”. This compound also gave a Volatility in series [2] (Table 10, woody note) of 2.75 μg/l air.
`CC(=O)OCCC1CCCCC1` [2-CYCLOHEXYLETHYL ACETATE]: the “Odor Threshold” value in series [1] (Table 9, gourmand note) came out at 4.49E−02 μg/l air. For the same compound, the Volatility in series [2] (Table 9, gourmand note) is 489.45 μg/l air. Besides, the Type entry in series [2] (setting [9]) is “Top”.
Turning to `COc1cc(C=O)ccc1O` [4-hydroxy-3-methoxybenzaldehyde], the “Odor Threshold” value came to 6.75E−06 μg/l air in series [1] (setting [5]) and 6.75E−06 μg/l air in series [1] (Table 9, gourmand note). Also, the “Odor Value” in series [1] (setting [5]) came out at 6.28E+05. Besides, the Volatility in series [2] (setting [5]) amounted to 4.24 μg/l air; in series [2] (Table 9, gourmand note) it was 4.24 μg/l air. For the same compound, the Type entry in series [2] (setting [8]) and in series [2] (setting [9]) was “Bottom” throughout.
Regarding `CCCCC/C=C\CCC=O` [(Z)-4-DECENAL], the “Odor Threshold (μg/l air)” value in series [1] (setting [3]) amounted to 3.78E−05 μg/l air. In series [2] (setting [4]), the Type result was “Top”. In addition, the “Volatility (μg/l air)” value in series [2] (setting [3]) was found to be 629.54 μg/l air.
Consider `CCCCO` [1-BUTANOL], for which the “Odor Threshold” value in series [1] (setting [5]) is recorded as 8.70E−02 μg/l air; in series [1] (Table 9, gourmand note), 8.70E−02 μg/l air; in series [1] (Table 10, woody note) it was 8.70E−02 μg/l air. In addition, the “Odor Value” in series [1] (setting [5]) was determined as 2.03E+05. In series [1] (setting [3]), the “Odor Threshold (μg/l air)” value was 8.70E−02 μg/l air. The Volatility came out at 17700.00 μg/l air in series [2] (setting [5]); 17700.00 μg/l air in series [2] (Table 9, gourmand note); 17700.00 μg/l air in series [2] (Table 10, woody note). In addition, the Type entry in series [2] (setting [8]), in series [2] (setting [9]), in series [2] (setting [10]) and in series [2] (setting [4]) was “Top” each time. The “Volatility (μg/l air)” value in series [2] (setting [3]) was found to be 17700.00 μg/l air.
In the case of `O=C(OCc1ccccc1)c1ccccc1` [BENZYL BENZOATE], the “Odor Threshold” value in series [1] (setting [6]) was 3.67E−02 μg/l air. Also, the “Odor Value” in series [1] (setting [6]) came to 2.31E+01; in series [1] (Table 7, citrus note, equals volatility divided by odor threshold), 2.31E+01. The “Odor Threshold (μg/l air)” value in series [1] (Table 7, citrus note) was 3.67E−02 μg/l air. The same compound returned a Volatility in series [2] (setting [6]) of 0.85 μg/l air. Besides, the Type entry in series [2] (setting [7]) is “Bottom”; in series [2] (Table 7, citrus note, top, middle or bottom note), “Bottom”. Moreover, the “Volatility (μg/l air)” value in series [2] (Table 7, citrus note) is given as 0.85 μg/l air.
In the case of `CCCCCC#CC(=O)OC` [METHYL 2-OCTYNOATE″], the “Odor Threshold (μg/l air)” value in series [1] (Table 4, watery note) was 8.31E−04 μg/l air. Moreover, the “Odor Value” in series [1] (Table 4, watery note, equals volatility divided by odor threshold) is recorded as 5.68E+05. Also, the “Volatility (μg/l air)” value in series [2] (Table 4, watery note) stood at 472.01 μg/l air. Further, the Type entry in series [2] (Table 4, watery note, top, middle or bottom note) was “TOP (perfuming compounds having a volatility ranging from 70,000 to 100 μg/l in air are referred to as “top notes”)”.
On to `Cc1ncsc1CCO` [2-(4-METHYL-1,3-THIAZOL-5-YL)-1-ETHANOL], for which, in series [1] (setting [5]), the “Odor Threshold” value turned out to be 2.43E−04 μg/l air and the “Odor Value” was 9.71E+03. In series [2] (setting [5]), this compound returned a Volatility of 2.36 μg/l air. Moreover, the Type entry in series [2] (setting [8]) is listed as “Bottom”.
